According to ChEMBL document CHEMBL5042492, “Noncovalent CDK12/13 dual inhibitors-based PROTACs degrade CDK12-Cyclin K complex and induce synthetic lethality with PARP inhibitor” (Eur J Med Chem, 2022):
The source made the active and inactive calls. The rule behind the calls is not given here.

Columns and labels:
[1] = target: T1, Protein cereblon/Cyclin-K/Cyclin-dependent kinase 12 (Homo sapiens, UniProt O75909+Q9NYV4+Q96SW2); experiment: Protac activity at human CRBN/CDK12/CycK in human Bel-7402 cells assessed as degradation of CDK12 at 3 uM measured after 24 hrs by Western blotting assay; assay type: cell-based
T1 sequence (O75909 whole entry, looked up): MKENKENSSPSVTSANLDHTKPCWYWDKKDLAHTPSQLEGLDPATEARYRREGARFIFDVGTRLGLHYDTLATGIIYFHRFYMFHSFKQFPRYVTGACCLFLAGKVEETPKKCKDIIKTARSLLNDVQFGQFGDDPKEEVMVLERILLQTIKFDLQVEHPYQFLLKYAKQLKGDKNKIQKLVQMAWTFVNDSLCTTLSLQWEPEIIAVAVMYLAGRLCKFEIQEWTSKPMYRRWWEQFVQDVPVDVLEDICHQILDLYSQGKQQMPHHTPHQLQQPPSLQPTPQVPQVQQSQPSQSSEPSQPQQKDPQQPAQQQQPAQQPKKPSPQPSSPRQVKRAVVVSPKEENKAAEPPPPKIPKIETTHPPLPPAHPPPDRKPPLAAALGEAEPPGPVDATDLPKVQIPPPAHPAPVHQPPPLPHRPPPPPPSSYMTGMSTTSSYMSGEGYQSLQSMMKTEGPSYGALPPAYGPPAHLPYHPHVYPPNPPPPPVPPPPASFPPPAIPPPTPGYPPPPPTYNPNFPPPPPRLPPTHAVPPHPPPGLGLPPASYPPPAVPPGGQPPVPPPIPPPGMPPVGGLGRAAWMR
T1 sequence (Q96SW2 whole entry, looked up): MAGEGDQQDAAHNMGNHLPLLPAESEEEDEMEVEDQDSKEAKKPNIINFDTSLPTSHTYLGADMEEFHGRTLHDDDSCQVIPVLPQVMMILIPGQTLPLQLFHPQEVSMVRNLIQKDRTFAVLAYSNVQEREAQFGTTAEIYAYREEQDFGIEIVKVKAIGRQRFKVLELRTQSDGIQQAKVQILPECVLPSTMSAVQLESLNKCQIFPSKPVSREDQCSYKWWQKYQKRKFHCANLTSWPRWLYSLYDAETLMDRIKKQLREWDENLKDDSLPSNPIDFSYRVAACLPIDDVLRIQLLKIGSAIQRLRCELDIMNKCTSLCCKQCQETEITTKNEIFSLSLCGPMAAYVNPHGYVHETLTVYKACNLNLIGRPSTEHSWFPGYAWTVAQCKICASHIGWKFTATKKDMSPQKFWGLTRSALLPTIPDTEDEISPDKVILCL
T1 sequence (Q9NYV4 whole entry, looked up): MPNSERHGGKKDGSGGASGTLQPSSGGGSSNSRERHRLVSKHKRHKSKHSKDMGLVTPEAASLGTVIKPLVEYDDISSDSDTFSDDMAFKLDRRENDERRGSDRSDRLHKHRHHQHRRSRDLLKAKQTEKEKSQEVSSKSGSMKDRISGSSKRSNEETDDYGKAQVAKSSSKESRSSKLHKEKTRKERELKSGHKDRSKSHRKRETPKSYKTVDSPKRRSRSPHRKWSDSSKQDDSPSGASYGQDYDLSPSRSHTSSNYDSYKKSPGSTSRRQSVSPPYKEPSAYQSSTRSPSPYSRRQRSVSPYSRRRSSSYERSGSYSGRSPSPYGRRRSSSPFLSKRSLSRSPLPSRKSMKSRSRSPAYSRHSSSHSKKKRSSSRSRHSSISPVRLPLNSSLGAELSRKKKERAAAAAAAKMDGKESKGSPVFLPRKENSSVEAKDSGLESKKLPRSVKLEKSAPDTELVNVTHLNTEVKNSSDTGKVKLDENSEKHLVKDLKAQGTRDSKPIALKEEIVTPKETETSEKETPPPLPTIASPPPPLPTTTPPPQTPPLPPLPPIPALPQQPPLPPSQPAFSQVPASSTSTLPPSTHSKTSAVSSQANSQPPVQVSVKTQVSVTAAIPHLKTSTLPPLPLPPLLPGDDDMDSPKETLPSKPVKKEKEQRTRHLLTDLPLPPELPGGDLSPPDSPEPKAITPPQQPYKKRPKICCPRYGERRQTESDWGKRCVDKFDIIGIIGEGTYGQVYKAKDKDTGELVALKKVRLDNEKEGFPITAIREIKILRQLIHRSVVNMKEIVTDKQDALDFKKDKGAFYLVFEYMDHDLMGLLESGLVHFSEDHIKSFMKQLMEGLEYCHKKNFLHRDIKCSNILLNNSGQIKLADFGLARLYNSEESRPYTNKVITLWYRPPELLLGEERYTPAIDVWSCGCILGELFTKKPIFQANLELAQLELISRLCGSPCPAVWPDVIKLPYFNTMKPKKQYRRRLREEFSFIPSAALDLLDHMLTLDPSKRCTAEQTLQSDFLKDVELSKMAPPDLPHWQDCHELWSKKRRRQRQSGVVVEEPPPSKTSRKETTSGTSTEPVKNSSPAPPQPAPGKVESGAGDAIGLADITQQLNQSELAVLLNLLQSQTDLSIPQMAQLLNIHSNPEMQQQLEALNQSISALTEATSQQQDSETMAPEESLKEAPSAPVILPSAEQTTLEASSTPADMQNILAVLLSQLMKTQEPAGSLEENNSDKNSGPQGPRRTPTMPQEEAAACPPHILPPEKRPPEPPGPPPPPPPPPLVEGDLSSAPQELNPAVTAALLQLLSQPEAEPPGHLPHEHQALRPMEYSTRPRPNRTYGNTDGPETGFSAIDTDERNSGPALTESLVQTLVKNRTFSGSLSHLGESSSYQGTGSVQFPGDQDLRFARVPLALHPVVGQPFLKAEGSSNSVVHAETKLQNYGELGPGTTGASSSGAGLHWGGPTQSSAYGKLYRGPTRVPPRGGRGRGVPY

[2] = target: T1, Protein cereblon/Cyclin-K/Cyclin-dependent kinase 12; experiment: Protac activity at human CRBN/CDK12/CycK in human MDA-MB-231 cells assessed as degradation of CDK12 at 3 uM measured after 24 hrs by Western blotting assay; assay type: cell-based
[3] = target: T1, Protein cereblon/Cyclin-K/Cyclin-dependent kinase 12; experiment: Protac activity at human CRBN/CDK12/CycK in human Bel-7402 (CRBN/KO) cells assessed as degradation of CDK12 measured after 24 hrs by Western blotting assay; assay type: cell-based
[4] = target: T1, Protein cereblon/Cyclin-K/Cyclin-dependent kinase 12; experiment: Protac activity at human CRBN/CDK12/CycK in human MDA-MB-231(CRBN/KO) cells assessed as degradation of CDK12 measured after 24 hrs by Western blotting assay; assay type: cell-based
[5] = target: T2, CDK12/Cyclin K (Homo sapiens) (UniProt O75909+Q9NYV4); experiment: Protac activity at human CDK12/CycK in human Bel-7402 (CRBN/WT) cells assessed as degradation of CDK12 measured after 24 hrs by Western blotting assay; assay type: cell-based
T2 sequence (O75909 whole entry, looked up): as the sequence (O75909 whole entry, looked up) above
T2 sequence (Q9NYV4 whole entry, looked up): as the sequence (Q9NYV4 whole entry, looked up) above

[6] = target: T2, CDK12/Cyclin K (Homo sapiens); experiment: Protac activity at human CDK12/CycK in human MDA-MB-231 (CRBN/WT) cells assessed as degradation of CDK12 measured after 24 hrs by Western blotting assay; assay type: cell-based
[7] = target: CDK12/Cyclin K (Homo sapiens, UniProt Q9NYV4); experiment: Inhibition of human CDK12 (696 to 1082 residues) /cyclinK (1 to 300 residues) using ac-YSPTSPpSYSPTSFpS-YSPTSPpSY-[PEG2]-RR-amid peptide as substrate in presence of ATP measured after 2 hrs by ADP-Glo kinase assay; assay type: protein-complex assay
Sequence of CDK12/Cyclin K (O75909 whole entry, the tested form may be a part): as the sequence (O75909 whole entry, looked up) above
Sequence of CDK12/Cyclin K (Q9NYV4 whole entry, the tested form may be a part): as the sequence (Q9NYV4 whole entry, looked up) above

[8] = target: Cyclin-dependent kinase 13 (Homo sapiens) (UniProt Q14004); experiment: Inhibition of human N-terminal FLAG-tagged CDK13 (600 to 1100 residues) using GST-tagged CTD as substrate at 3 uM for 2 hrs by western blot analysis
Sequence of Cyclin-dependent kinase 13 (Homo sapiens) (Q14004 whole entry, looked up, the tested form may be a part): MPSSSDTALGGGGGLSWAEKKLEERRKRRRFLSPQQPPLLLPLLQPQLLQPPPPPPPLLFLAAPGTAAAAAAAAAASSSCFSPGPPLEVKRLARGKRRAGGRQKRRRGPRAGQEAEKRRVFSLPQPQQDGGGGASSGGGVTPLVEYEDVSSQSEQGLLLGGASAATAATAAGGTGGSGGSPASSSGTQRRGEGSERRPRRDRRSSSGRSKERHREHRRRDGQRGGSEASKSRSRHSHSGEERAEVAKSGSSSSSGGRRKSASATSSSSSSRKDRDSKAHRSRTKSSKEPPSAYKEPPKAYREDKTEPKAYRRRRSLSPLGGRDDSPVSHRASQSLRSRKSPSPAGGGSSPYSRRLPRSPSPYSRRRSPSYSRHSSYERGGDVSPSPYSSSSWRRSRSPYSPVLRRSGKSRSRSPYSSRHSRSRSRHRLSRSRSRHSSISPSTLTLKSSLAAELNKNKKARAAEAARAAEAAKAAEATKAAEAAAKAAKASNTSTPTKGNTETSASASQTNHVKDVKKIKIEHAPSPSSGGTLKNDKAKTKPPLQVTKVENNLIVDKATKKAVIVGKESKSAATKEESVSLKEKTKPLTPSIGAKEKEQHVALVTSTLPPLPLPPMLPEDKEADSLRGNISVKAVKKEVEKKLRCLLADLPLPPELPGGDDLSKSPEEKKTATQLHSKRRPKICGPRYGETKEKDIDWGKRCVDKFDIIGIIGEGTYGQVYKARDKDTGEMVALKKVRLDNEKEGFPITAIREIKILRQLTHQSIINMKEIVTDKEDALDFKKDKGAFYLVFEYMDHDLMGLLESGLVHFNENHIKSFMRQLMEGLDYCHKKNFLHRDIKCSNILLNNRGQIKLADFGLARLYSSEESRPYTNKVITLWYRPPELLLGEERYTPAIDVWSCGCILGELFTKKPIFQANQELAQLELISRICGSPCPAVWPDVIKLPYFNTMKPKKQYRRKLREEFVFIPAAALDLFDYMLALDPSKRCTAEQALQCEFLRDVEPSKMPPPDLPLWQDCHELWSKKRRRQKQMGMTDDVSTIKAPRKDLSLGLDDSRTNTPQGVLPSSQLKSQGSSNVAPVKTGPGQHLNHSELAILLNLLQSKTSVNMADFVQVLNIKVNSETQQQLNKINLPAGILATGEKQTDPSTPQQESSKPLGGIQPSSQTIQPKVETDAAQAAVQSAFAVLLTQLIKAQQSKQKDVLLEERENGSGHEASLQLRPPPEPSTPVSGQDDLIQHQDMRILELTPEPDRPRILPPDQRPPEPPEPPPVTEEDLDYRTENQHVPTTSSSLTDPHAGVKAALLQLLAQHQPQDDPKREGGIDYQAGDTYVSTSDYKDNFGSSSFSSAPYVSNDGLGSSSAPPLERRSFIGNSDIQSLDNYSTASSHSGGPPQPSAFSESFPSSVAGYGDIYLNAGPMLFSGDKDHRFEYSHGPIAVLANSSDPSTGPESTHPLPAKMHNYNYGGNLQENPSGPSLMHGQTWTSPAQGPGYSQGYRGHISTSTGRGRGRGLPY

Activity [1] | Activity [2] | Activity [3] | Activity [4] | Activity [5] | Activity [6] | IC50 [7] | inhibition [8] | Compound
Active | Active | – | – | – | – | – | – | CC(C)n1cnc2c(NCc3nc4cc(F)c(NCCCCCCCCCCNC(=O)COc5cccc6c5C(=O)N(C5CCC(=O)NC5=O)C6=O)cc4[nH]3)nc(N3CCOCC3)nc21 (centres undefined)
– | – | Active | Active | Active | Active | – | – | Cn1cc(-n2cnc3c(NCc4nc5cc(Cl)c(Cl)cc5[nH]4)nc(N4CCOCC4)nc32)cn1
– | – | – | – | – | – | 411 nM | – | COCCOCCOc1cc2[nH]c(CNc3nc(N4CCOCC4)nc4c3ncn4-c3cnn(C)c3)nc2cc1F
Active | Active | – | – | – | – | 119 nM | – | CC(C)n1cnc2c(NCc3nc4cc(F)c(NCCCCCCNC(=O)COc5cccc6c5C(=O)N(C5CCC(=O)NC5=O)C6=O)cc4[nH]3)nc(N3CCOCC3)nc21 (centres undefined)
Active | Active | – | – | – | – | 2000 nM | inactive | CC(C)n1cnc2c(NCc3nc4cc(F)c(NCCCCCCCCCCCCNC(=O)COc5cccc6c5C(=O)N(C5CCC(=O)NC5=O)C6=O)cc4[nH]3)nc(N3CCOCC3)nc21 (centres undefined)
